Results reported in the NIST ThermoML archive (doi:10.1021/je0501078).

Key:
[1] = Molar enthalpy of transition or fusion; details: Crystal
[2] = Crystal
[3] = molar heat capacity at constant pressure; details: 101.33 kPa

O=C1CCCCC1C1(O)CCCCC1 (centres undefined) [1'-hydroxy-[1,1'-bicyclohexyl]-2-one]
Details | Molar enthalpy of transition or fusion, [1] [kcal/mol] | Triple point temperature, [2] [K]
Adiabatic calorimetry | 4.974 | 306.75
DSC | 4.95 | 306.9

Details | mass density, 292 K [kg/m3] | molar heat capacity at constant pressure, 306.75 K [J/K/mol] | molar heat capacity at constant pressure, 310 K [J/K/mol] | molar heat capacity at constant pressure, 320 K [J/K/mol] | molar heat capacity at constant pressure, 330 K [J/K/mol] | molar heat capacity at constant pressure, 340 K [J/K/mol] | molar heat capacity at constant pressure, 350 K [J/K/mol] | molar heat capacity at constant pressure, 360 K [J/K/mol] | molar heat capacity at constant pressure, 370 K [J/K/mol]
[2], 101.33 kPa, Pycnometric method | 1140 | – | – | – | – | – | – | – | –
[3], Liquid, Large sample (1 g) DSC | – | 350 | 352 | 359.3 | 367.5 | 376.8 | 387.2 | 398.7 | 411.2

[3], Crystal
Details | molar heat capacity at constant pressure [J/K/mol]
5 K | 0.496
10 K | 3.909
15 K | 10.08
20 K | 17.48
25 K | 25.17
30 K | 32.48
35 K | 39.18
40 K | 45.5
45 K | 51.25
50 K | 56.58
60 K | 66.47
70 K | 75.55
80 K | 84.14
90 K | 92.37
100 K | 100.7
110 K | 108.6
120 K | 116.4
130 K | 124.2
140 K | 132
150 K | 139.8
160 K | 147.7
170 K | 155.8
180 K | 163.9
190 K | 171.9
200 K | 180
210 K | 188.2
220 K | 196.6
230 K | 205.1
240 K | 213.9
250 K | 223.2
260 K | 233.2
270 K | 243.9
280 K | 255.5
290 K | 268
300 K | 281.5
306.75 K | 291.3
